Columns and labels:
[1] = Genotoxicity in human HepG2 assessed as survival at 350 uM measured after 24 hrs by micronucleus test (reference value: 100%); format: toxicity, cell-based; details: HepG2 cells, read-out: Survival
RAW264.7 [2] = test: Genotoxicity in mouse RAW264.7 cells assessed as number of micronucleated cells at 350 uM measured after 24 hrs by micronucleus test (reference value: 12 to 15); format: toxicity, cell-based; details: raw264.7, 24 h
[3] = Genotoxicity in mouse RAW264.7 cells assessed as survival at 350 uM measured after 24 hrs by micronucleus test (reference value: 100%); format: toxicity, cell-based; details: read-out: Survival
[4] = Genotoxicity in mouse RAW264.7 cells assessed as survival at 1750 uM measured after 24 hrs by micronucleus test (reference value: 100%); format: toxicity, cell-based; details: read-out: Survival
RAW264.7 [5] = test: Genotoxicity in mouse RAW264.7 cells assessed as mitotic index at 3500 uM measured after 24 hrs by micronucleus test (reference value: 40 to 249); format: toxicity, cell-based; details: raw264.7, 24 h
HepG2 [6] = test: Genotoxicity in human HepG2 assessed as mitotic index at 3500 uM measured after 24 hrs by micronucleus test (reference value: 61 to 108); format: toxicity, cell-based; details: hepg2, 24 h
[7] = Toxicity in Salmonella typhimurium TA102 at 100 ug/plate measured after 20 mins in absence of S9 fraction by colony counting method; details: salmonella enterica subsp. enterica serovar typhimurium, dose 100 µg
RAW264.7 [8] = test: Genotoxicity in mouse RAW264.7 cells assessed as number of micronucleated cells at 3500 uM measured after 24 hrs by micronucleus test (reference value: 12 to 15); format: toxicity, cell-based; details: raw264.7, 24 h
HepG2 [9] = test: Genotoxicity in human HepG2 assessed as number of micronucleated cells at 350 uM measured after 24 hrs by micronucleus test (reference value: 14 to 18); format: toxicity, cell-based; details: hepg2, 24 h
HepG2 [10] = test: Genotoxicity in human HepG2 assessed as number of micronucleated cells at 175 uM measured after 24 hrs by micronucleus test (reference value: 14 to 18); format: toxicity, cell-based; details: hepg2, 24 h
RAW264.7 [11] = test: Genotoxicity in mouse RAW264.7 cells assessed as number of micronucleated cells at 175 uM measured after 24 hrs by micronucleus test (reference value: 12 to 15); format: toxicity, cell-based; details: raw264.7, 24 h
RAW264.7 [12] = test: Genotoxicity in mouse RAW264.7 cells assessed as mitotic index at 1750 uM measured after 24 hrs by micronucleus test (reference value: 40 to 249); format: toxicity, cell-based; details: raw264.7, 24 h
HepG2 [13] = test: Genotoxicity in human HepG2 assessed as mitotic index at 350 uM measured after 24 hrs by micronucleus test (reference value: 61 to 108); format: toxicity, cell-based; details: hepg2, 24 h
[14] = Genotoxicity in mouse RAW264.7 cells assessed as survival at 3500 uM measured after 24 hrs by micronucleus test (reference value: 100%); format: toxicity, cell-based; details: read-out: Survival
RAW264.7 [15] = test: Genotoxicity in mouse RAW264.7 cells assessed as mitotic index at 350 uM measured after 24 hrs by micronucleus test (reference value: 40 to 249); format: toxicity, cell-based; details: raw264.7, 24 h
[16] = Genotoxicity in human HepG2 assessed as survival at 1750 uM measured after 24 hrs by micronucleus test (reference value: 100%); format: toxicity, cell-based; details: HepG2 cells, read-out: Survival
RAW264.7 [17] = test: Genotoxicity in mouse RAW264.7 cells assessed as number of micronucleated cells at 1750 uM measured after 24 hrs by micronucleus test (reference value: 12 to 15); format: toxicity, cell-based; details: raw264.7, 24 h
HepG2 [18] = test: Genotoxicity in human HepG2 assessed as number of micronucleated cells at 3500 uM measured after 24 hrs by micronucleus test (reference value: 14 to 18); format: toxicity, cell-based; details: hepg2, 24 h
HepG2 [19] = test: Genotoxicity in human HepG2 assessed as mitotic index at 1750 uM measured after 24 hrs by micronucleus test (reference value: 61 to 108); format: toxicity, cell-based; details: hepg2, 24 h
HepG2 [20] = test: Genotoxicity in human HepG2 assessed as number of micronucleated cells at 1750 uM measured after 24 hrs by micronucleus test (reference value: 14 to 18); format: toxicity, cell-based; details: hepg2, 24 h
HepG2 [21] = test: Cytotoxicity against human HepG2 cells assessed as induction of membrane damage at 17.5 to 350 uM measured after 24 hrs by LDH assay; format: cell-based; details: hepg2, 24 h, dose 17.5-350 µM
RAW264.7 [22] = test: Genotoxicity in mouse RAW264.7 cells assessed as mitotic index at 4270 uM measured after 24 hrs by micronucleus test (reference value: 40 to 249); format: toxicity, cell-based; details: raw264.7, 24 h
HepG2 [23] = test: Genotoxicity in human HepG2 assessed as number of micronucleated cells at 427 uM measured after 24 hrs by micronucleus test (reference value: 14 to 18); format: toxicity, cell-based; details: hepg2, 24 h
HepG2 [24] = test: Cytotoxicity against human HepG2 cells at 21.3 to 427 uM measured after 24 hrs by LDH assay; format: cell-based; details: hepg2, 24 h, dose 21.3-427 µM
RAW264.7 [25] = test: Genotoxicity in mouse RAW264.7 cells assessed as number of micronucleated cells at 4270 uM measured after 24 hrs by micronucleus test (reference value: 12 to 15); format: toxicity, cell-based; details: raw264.7, 24 h
RAW264.7 [26] = test: Genotoxicity in mouse RAW264.7 cells assessed as mitotic index at 2135 uM measured after 24 hrs by micronucleus test (reference value: 40 to 249); format: toxicity, cell-based; details: raw264.7, 24 h
[27] = Genotoxicity in mouse RAW264.7 cells assessed as survival at 213 uM measured after 24 hrs by micronucleus test (reference value: 100%); format: toxicity, cell-based; details: read-out: Survival
[28] = Toxicity in Salmonella typhimurium TA97 at 100 ug/plate measured after 20 mins in absence of S9 fraction by colony counting method; details: salmonella enterica subsp. enterica serovar typhimurium, dose 100 µg
[29] = Genotoxicity in human HepG2 assessed as survival at 4270 uM measured after 24 hrs by micronucleus test (reference value: 100%); format: toxicity, cell-based; details: HepG2 cells, read-out: Survival
RAW264.7 [30] = test: Cytotoxicity against mouse RAW264.7 cells at 21.3 to 427 uM measured after 24 hrs by LDH assay; format: cell-based; details: raw264.7, 24 h, dose 21.3-427 µM
HepG2 [31] = test: Genotoxicity in human HepG2 assessed as mitotic index at 4270 uM measured after 24 hrs by micronucleus test (reference value: 61 to 108); format: toxicity, cell-based; details: hepg2, 24 h
[32] = Genotoxicity in human HepG2 assessed as survival at 213 uM measured after 24 hrs by micronucleus test (reference value: 100%); format: toxicity, cell-based; details: HepG2 cells, read-out: Survival
[33] = Genotoxicity in mouse RAW264.7 cells assessed as survival at 427 uM measured after 24 hrs by micronucleus test (reference value: 100%); format: toxicity, cell-based; details: read-out: Survival
HepG2 [34] = test: Genotoxicity in human HepG2 assessed as number of micronucleated cells at 4270 uM measured after 24 hrs by micronucleus test (reference value: 14 to 18); format: toxicity, cell-based; details: hepg2, 24 h
HepG2 [35] = test: Genotoxicity in human HepG2 assessed as number of micronucleated cells at 2135 uM measured after 24 hrs by micronucleus test (reference value: 14 to 18); format: toxicity, cell-based; details: hepg2, 24 h
[36] = Genotoxicity in human HepG2 assessed as survival at 427 uM measured after 24 hrs by micronucleus test (reference value: 100%); format: toxicity, cell-based; details: HepG2 cells, read-out: Survival
HepG2 [37] = test: Genotoxicity in human HepG2 assessed as mitotic index at 213 uM measured after 24 hrs by micronucleus test (reference value: 61 to 108); format: toxicity, cell-based; details: hepg2, 24 h
HepG2 [38] = test: Genotoxicity in human HepG2 assessed as number of micronucleated cells at 213 uM measured after 24 hrs by micronucleus test (reference value: 14 to 18); format: toxicity, cell-based; details: hepg2, 24 h
[39] = Genotoxicity in human HepG2 assessed as survival at 2135 uM measured after 24 hrs by micronucleus test (reference value: 100%); format: toxicity, cell-based; details: HepG2 cells, read-out: Survival

Compound CCCCCc1ccc(-c2cn(-c3c([N+](=O)[O-])ncn3C)nn2)cc1 has a viability at 24 h, 350 µM [1] of 95%, an Activity (RAW264.7 [2]) of 13 and a viability at 24 h, 350 µM [3] of 99%. It also gave a viability at 24 h, 1750 µM [4] of 85%, an Activity_index (RAW264.7 [5]) of 115 and an Activity_index (HepG2 [6]) of 53. The Activity [7] was “Toxic”, the Activity (RAW264.7 [8]) was 39 and the Activity (HepG2 [9]) was 25. It also gave an Activity (HepG2 [10]) of 14, an Activity (RAW264.7 [11]) of 11 and an Activity_index (RAW264.7 [12]) of 166. It also gave an Activity_index (HepG2 [13]) of 91, a viability at 24 h, 3500 µM [14] of 71% and an Activity_index (RAW264.7 [15]) of 223. It also gave a viability at 24 h, 1750 µM [16] of 80%, an Activity (RAW264.7 [17]) of 23 and an Activity (HepG2 [18]) of 42. The Activity_index (HepG2 [19]) was 59, the Activity (HepG2 [20]) was 35 and the Activity (HepG2 [21]) was “Toxic”.
With Cn1cnc([N+](=O)[O-])c1-n1cc(C2CC2)nn1 the Activity_index (RAW264.7 [22]) was 36, the Activity (HepG2 [23]) was 17 and the Activity (HepG2 [24]) was “Non-Toxic”. The Activity (RAW264.7 [25]) was 20, the Activity_index (RAW264.7 [26]) was 37 and the viability at 24 h, 213 µM [27] was 99%. For the same compound, the Activity [28] was “Toxic”, the viability at 24 h, 4270 µM [29] was 91% and the Activity (RAW264.7 [30]) was “Non-Toxic”. The Activity_index (HepG2 [31]) was 124, the viability at 24 h, 213 µM [32] was 99% and the viability at 24 h, 427 µM [33] was 99%. For the same compound, the Activity (HepG2 [34]) was 27, the Activity (HepG2 [35]) was 19 and the viability at 24 h, 427 µM [36] was 99%. The Activity_index (HepG2 [37]) was 97, the Activity (HepG2 [38]) was 17 and the viability at 24 h, 2135 µM [39] was 95%.
